Reference: the supplement of paper PMC8149375

How the values were obtained:
Conditions in all cases: treatment: drug + dasatinib (fixed dose, not stated); 5 days
769-P [1] = assay: GI50 of drug in presence of dasatinib; higher = less potent
Method: (§1)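 Primary HTS combination arm: 8 RCC cell lines treated with 8 doses (up to 10 uM) of each library drug plus a fixed dose of dasatinib (dose not stated) for 5 days; viability read by CellTiter-Glo and normalised to DMSO. GI50 was fitted with XLfit, AUC is the area under the dose-response curve, and minimum viability is the lowest fraction of DMSO viability across doses.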

786-O [2] = assay: as above
Method: as §1

A498 [3] = assay: as above
Method: as §1

ACHN [4] = assay: as above
Method: as §1

CAKI-1 [5] = assay: as above
Method: as §1

SN12C [6] = assay: as above
Method: as §1

TK-10 [7] = assay: as above
Method: as §1

UO-31 [8] = assay: as above
Method: as §1

769-P [9] = assay: minimum viability across doses, drug + dasatinib, relative to DMSO (fraction); higher = less growth inhibition
Method: as §1

786-O [10] = assay: as above
Method: as §1

A498 [11] = assay: as above
Method: as §1

ACHN [12] = assay: as above
Method: as §1

CAKI-1 [13] = assay: as above
Method: as §1

SN12C [14] = assay: as above
Method: as §1

TK-10 [15] = assay: as above
Method: as §1

UO-31 [16] = assay: as above
Method: as §1

769-P [17] = assay: AUC of dose-response viability curve, drug + dasatinib, normalised to DMSO (arbitrary (AUC of normalised viability)); higher = less growth inhibition
Method: as §1

786-O [18] = assay: as above
Method: as §1

A498 [19] = assay: as above
Method: as §1

ACHN [20] = assay: as above
Method: as §1

CAKI-1 [21] = assay: as above
Method: as §1

SN12C [22] = assay: as above
Method: as §1

TK-10 [23] = assay: as above
Method: as §1

UO-31 [24] = assay: as above
Method: as §1

Structure (SMILES)	GI50 of drug (769-P [1]) [nM]	GI50 of drug (786-O [2]) [nM]	GI50 of drug (A498 [3]) [nM]	GI50 of drug (ACHN [4]) [nM]	GI50 of drug (CAKI-1 [5]) [nM]	GI50 of drug (SN12C [6]) [µM]	GI50 of drug (TK-10 [7]) [nM]	GI50 of drug (UO-31 [8]) [nM]	minimum viability across doses (769-P [9])	minimum viability across doses (786-O [10])	minimum viability across doses (A498 [11])	minimum viability across doses (ACHN [12])	minimum viability across doses (CAKI-1 [13])	minimum viability across doses (SN12C [14])	minimum viability across doses (TK-10 [15])	minimum viability across doses (UO-31 [16])	AUC of dose-response viability curve (769-P [17])	AUC of dose-response viability curve (786-O [18])	AUC of dose-response viability curve (A498 [19])	AUC of dose-response viability curve (ACHN [20])	AUC of dose-response viability curve (CAKI-1 [21])	AUC of dose-response viability curve (SN12C [22])	AUC of dose-response viability curve (TK-10 [23])	AUC of dose-response viability curve (UO-31 [24])
NC(=O)Nc1sc(-c2ccc(F)cc2)cc1C(N)=O [TPCA-1] + Cc1nc(Nc2ncc(C(=O)Nc3c(C)cccc3Cl)s2)cc(N2CCN(CCO)CC2)n1 [dasatinib]	2180	2540	> 10000	346	458	> 10	848	3720	0.232	0.258	0.711	0.184	0.076	0.405	0.176	0.212	2.22	2.09	3.33	1.7	1.81	2.35	1.94	3.28
FC(F)(F)c1ccc(/C=C/c2nc(COc3ccc(CCCCn4ccnn4)cc3)co2)cc1 [Mubritinib (TAK 165)] + Cc1nc(Nc2ncc(C(=O)Nc3c(C)cccc3Cl)s2)cc(N2CCN(CCO)CC2)n1 [dasatinib]	> 10000	23.8	243	31.4	> 10000	0.0416	146	74.7	0.539	0.0257	0.231	0.183	0.543	0.0505	0.168	0.124	2.32	0.96	1.99	1.26	2.17	1.09	1.56	1.66
Nc1ncnc2c1c(-c1cccc(OCc3ccccc3)c1)cn2[C@H]1C[C@H](CN2CCCC2)C1 [NVP-ADW742] + Cc1nc(Nc2ncc(C(=O)Nc3c(C)cccc3Cl)s2)cc(N2CCN(CCO)CC2)n1 [dasatinib]	5140	3280	8960	129	1290	> 10	3390	2490	0.278	0.172	0.296	0.147	0.0883	0.48	0.124	0.0171	2.45	2.33	3.18	1.77	2	2.44	2.44	2.57
COc1cc2ncnc(Nc3ccc(O)c(Br)c3)c2cc1OC [WHI-P154] + Cc1nc(Nc2ncc(C(=O)Nc3c(C)cccc3Cl)s2)cc(N2CCN(CCO)CC2)n1 [dasatinib]	2580	> 10000	> 10000	33.7	2980	> 10	1920	> 10000	0.348	0.547	0.937	0.218	0.211	0.603	0.422	1.22	2.22	2.26	3.93	1.42	2.26	2.51	2.16	5.45
CN1CCN(c2ccc3nc(-c4c(N)c5c(F)cccc5[nH]c4=O)[nH]c3c2)CC1 [Dovitinib (TKI-258)] + Cc1nc(Nc2ncc(C(=O)Nc3c(C)cccc3Cl)s2)cc(N2CCN(CCO)CC2)n1 [dasatinib]	1410	4070	2330	44.8	148	0.266	1890	697	0.0592	0.263	0.239	0.14	0.0724	0.0733	0.277	0.0928	2.06	2.58	2.49	1.38	1.5	1.6	2.33	2.36
COc1ccc2c(OCc3nnc4ccc(-c5ccccc5)nn34)ccnc2c1 [AMG-208] + Cc1nc(Nc2ncc(C(=O)Nc3c(C)cccc3Cl)s2)cc(N2CCN(CCO)CC2)n1 [dasatinib]	> 10000	> 10000	> 10000	> 10000	> 10000	> 10	> 10000	> 10000	0.634	0.68	0.805	0.544	0.613	0.688	0.642	0.987	2.4	2.6	3.32	2.07	2.24	2.52	2.54	3.91
NCC(=O)Nc1ccc(-n2nc(C(F)(F)F)cc2-c2ccc3c(ccc4ccccc43)c2)cc1 + Cc1nc(Nc2ncc(C(=O)Nc3c(C)cccc3Cl)s2)cc(N2CCN(CCO)CC2)n1 [dasatinib]	2650	1060	2100	729	3650	4.51	2750	2580	0.0325	0.00632	0.0159	0.0394	0.00695	0.00289	0.177	0.0147	2.22	1.94	2.71	1.81	2.5	2.31	2.41	2.72
